According to ChEMBL document CHEMBL3813616, “Discovery of novel 7-azaindoles as PDK1 inhibitors” (Bioorg Med Chem Lett, 2016):

What was measured:
[1] = target: T1, Serine/threonine-protein kinase Nek2 (Homo sapiens) (UniProt P51955); experiment: Inhibition of human NEK2A (1 to 445 residues) assessed as enzyme activity at 1 uM using 33P ATP by radioactive filter binding assay; design: scale not given: the % may be the effect or the level left
T1 sequence (whole entry): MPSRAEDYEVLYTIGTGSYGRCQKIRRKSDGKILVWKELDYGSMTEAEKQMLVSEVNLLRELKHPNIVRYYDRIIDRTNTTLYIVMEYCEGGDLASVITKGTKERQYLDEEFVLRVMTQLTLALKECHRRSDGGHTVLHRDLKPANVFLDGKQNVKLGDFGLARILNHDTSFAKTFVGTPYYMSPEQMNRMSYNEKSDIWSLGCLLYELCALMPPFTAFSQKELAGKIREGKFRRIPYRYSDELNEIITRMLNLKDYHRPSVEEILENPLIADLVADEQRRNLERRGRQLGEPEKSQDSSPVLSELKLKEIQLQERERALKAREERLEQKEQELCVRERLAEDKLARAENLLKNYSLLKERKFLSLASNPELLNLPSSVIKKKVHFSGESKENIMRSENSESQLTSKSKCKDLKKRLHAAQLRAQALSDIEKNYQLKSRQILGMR

[2] = target: RAC-beta serine/threonine-protein kinase (Homo sapiens) (UniProt P31751); experiment: Inhibition of human PKBbeta (120 to 481 residues) assessed as enzyme activity at 1 uM using 33P ATP by radioactive filter binding assay; design: scale not given: the % may be the effect or the level left
[3] = target: T2, Protein kinase C zeta type (Homo sapiens) (UniProt Q05513); experiment: Inhibition of human PKCzeta (2 to 592 residues) assessed as enzyme activity at 1 uM using 33P ATP by radioactive filter binding assay; design: scale not given: the % may be the effect or the level left
T2 sequence (whole entry): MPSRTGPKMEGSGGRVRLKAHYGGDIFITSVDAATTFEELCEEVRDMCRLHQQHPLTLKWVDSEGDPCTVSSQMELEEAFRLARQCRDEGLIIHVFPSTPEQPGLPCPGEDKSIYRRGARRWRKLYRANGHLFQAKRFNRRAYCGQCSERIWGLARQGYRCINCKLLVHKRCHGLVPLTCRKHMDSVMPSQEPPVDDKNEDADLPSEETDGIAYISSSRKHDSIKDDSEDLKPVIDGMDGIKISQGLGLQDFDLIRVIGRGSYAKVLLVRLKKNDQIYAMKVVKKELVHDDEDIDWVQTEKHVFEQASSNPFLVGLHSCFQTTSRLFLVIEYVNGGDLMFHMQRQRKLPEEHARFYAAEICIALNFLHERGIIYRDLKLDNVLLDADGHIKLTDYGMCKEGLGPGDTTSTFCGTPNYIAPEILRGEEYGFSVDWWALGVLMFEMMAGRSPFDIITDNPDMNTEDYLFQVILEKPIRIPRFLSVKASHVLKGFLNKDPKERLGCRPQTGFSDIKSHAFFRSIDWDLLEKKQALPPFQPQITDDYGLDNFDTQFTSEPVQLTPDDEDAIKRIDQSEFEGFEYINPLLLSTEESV

[4] = target: T3, Phosphatidylinositol 4,5-bisphosphate 3-kinase catalytic subunit delta isoform (Homo sapiens, UniProt O00329); experiment: Inhibition of PI3K delta (unknown origin)
T3 sequence (O00329 whole entry): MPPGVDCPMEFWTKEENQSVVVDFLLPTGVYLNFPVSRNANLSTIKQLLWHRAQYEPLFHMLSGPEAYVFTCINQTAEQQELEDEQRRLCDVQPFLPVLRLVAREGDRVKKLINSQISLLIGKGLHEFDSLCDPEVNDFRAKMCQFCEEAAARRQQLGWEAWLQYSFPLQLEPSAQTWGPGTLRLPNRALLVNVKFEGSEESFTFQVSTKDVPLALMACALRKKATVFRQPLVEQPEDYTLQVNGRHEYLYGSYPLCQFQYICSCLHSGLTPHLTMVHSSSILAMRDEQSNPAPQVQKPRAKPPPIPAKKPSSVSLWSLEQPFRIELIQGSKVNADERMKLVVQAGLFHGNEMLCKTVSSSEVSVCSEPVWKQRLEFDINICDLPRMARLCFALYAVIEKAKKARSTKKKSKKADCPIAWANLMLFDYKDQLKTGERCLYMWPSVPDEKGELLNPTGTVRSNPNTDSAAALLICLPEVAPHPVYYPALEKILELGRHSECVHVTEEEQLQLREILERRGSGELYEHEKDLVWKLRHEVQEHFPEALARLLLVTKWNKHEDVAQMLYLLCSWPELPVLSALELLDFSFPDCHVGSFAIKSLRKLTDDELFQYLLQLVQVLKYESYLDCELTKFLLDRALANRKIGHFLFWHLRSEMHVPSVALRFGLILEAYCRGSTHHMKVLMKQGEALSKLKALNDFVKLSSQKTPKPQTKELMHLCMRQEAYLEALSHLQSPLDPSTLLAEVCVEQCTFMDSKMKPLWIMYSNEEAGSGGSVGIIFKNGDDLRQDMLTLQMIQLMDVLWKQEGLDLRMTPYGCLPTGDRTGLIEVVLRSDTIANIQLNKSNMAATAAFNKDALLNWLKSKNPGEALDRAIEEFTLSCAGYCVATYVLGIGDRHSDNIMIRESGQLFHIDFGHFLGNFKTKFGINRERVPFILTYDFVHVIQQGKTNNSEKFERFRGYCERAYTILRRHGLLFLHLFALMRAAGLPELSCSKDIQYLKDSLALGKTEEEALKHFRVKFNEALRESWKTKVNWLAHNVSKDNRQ

[5] = target: T4, Serine/threonine-protein kinase Chk1 (Homo sapiens) (UniProt O14757); experiment: Inhibition of human CHK1 (1 to 476 residues) assessed as enzyme activity at 1 uM using 33P ATP by radioactive filter binding assay; design: scale not given: the % may be the effect or the level left
T4 sequence (whole entry): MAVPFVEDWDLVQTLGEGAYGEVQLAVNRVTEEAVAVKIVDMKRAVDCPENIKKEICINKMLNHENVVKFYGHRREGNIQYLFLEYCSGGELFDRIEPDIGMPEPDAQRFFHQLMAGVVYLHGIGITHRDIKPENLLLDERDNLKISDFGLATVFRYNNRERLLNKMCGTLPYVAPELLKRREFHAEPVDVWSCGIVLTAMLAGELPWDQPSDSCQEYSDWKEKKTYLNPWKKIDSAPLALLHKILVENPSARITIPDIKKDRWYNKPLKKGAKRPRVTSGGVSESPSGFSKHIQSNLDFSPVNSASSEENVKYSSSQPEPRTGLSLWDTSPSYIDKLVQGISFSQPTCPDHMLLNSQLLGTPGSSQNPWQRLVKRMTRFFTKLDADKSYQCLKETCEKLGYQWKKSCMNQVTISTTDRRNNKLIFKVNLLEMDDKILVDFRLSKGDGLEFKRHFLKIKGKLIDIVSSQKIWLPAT

[6] = target: Ephrin type-A receptor 2 (Homo sapiens) (UniProt P29317); experiment: Inhibition of human EPHA2 (591 to 976 residues) assessed as enzyme activity at 1 uM using 33P ATP by radioactive filter binding assay; design: scale not given: the % may be the effect or the level left
[7] = target: Fibroblast growth factor receptor 1 (Homo sapiens) (UniProt P11362); experiment: Inhibition of human FGFR1 (400 to 820 residues) assessed as enzyme activity at 1 uM using 33P ATP by radioactive filter binding assay; design: scale not given: the % may be the effect or the level left
Fibroblast growth factor receptor 1 (Homo sapiens), sequence (P11362 22-822 limits assumed): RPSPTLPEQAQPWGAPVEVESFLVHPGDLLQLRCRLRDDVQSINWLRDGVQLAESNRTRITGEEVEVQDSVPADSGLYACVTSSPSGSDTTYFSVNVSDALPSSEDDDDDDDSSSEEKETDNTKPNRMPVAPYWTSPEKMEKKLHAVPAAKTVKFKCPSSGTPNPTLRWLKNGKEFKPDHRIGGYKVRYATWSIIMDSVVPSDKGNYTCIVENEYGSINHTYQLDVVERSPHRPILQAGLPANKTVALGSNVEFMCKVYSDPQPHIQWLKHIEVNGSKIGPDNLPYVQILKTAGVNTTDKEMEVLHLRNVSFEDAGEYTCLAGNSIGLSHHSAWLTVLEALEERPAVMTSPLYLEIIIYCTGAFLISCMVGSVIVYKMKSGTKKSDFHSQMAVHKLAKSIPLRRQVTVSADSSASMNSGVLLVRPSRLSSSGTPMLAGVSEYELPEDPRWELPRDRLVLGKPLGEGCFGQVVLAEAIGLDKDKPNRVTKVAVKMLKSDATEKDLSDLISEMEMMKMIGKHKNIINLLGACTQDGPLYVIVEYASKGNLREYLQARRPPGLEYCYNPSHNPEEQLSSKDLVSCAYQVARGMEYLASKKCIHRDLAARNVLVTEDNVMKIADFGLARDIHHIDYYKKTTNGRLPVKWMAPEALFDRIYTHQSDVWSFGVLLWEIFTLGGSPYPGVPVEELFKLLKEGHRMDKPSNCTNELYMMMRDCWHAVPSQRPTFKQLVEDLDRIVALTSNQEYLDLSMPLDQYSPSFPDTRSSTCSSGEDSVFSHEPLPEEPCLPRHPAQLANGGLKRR

RAC-beta serine/threonine-protein kinase (Homo sapiens), sequence (P31751 whole entry, the tested form may be a part): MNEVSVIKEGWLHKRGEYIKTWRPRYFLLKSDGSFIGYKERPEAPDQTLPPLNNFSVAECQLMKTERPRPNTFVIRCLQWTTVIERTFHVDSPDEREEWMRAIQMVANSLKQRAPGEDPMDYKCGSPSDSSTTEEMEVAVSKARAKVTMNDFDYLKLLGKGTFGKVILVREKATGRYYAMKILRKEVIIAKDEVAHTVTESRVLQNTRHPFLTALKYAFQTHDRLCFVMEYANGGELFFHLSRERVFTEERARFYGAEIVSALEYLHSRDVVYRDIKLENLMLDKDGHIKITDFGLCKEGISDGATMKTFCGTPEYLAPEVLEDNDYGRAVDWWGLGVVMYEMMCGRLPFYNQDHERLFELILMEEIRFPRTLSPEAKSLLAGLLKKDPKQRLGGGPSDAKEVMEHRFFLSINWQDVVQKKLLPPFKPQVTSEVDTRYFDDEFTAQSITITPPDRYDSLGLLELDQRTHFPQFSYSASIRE
Ephrin type-A receptor 2 (Homo sapiens), sequence (P29317 whole entry, the tested form may be a part): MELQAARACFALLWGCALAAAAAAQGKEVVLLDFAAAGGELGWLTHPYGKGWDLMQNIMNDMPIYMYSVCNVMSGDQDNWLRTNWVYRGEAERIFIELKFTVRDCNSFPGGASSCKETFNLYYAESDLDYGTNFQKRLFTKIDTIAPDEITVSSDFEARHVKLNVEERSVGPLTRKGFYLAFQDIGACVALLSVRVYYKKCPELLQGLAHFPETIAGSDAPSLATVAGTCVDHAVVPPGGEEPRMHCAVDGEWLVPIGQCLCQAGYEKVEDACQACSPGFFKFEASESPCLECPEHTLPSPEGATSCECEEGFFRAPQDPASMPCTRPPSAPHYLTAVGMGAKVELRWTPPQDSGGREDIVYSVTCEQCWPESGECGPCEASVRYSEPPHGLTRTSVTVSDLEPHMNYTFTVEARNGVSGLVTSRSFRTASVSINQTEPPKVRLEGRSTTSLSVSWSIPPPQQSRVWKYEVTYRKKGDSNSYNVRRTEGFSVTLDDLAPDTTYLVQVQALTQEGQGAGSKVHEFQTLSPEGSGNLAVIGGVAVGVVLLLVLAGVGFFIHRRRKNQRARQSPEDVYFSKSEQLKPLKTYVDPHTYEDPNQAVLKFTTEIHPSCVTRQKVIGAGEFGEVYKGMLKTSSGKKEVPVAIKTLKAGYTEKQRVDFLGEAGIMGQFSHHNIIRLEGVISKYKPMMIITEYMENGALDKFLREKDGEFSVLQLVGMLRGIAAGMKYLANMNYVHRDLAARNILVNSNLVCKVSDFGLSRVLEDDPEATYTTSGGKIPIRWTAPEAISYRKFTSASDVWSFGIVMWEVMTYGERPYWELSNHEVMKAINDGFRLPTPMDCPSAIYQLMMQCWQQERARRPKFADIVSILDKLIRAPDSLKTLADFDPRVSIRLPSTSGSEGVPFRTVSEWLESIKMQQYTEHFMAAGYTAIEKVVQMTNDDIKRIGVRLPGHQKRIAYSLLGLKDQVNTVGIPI

Activity [1] | Activity [2] | Activity [3] | IC50 [4] | Activity [5] | Activity [6] | Activity [7] | Compound
-4% | -9% | -35% | > 10 µM | -6% | 25% | -8% | Nc1nccc(-c2c[nH]c3ncccc23)n1 [MERIOLIN 1]
-58% | 3% | -18% |  | -89% | -16% | -79% | CCc1cc(-c2c[nH]c3ncc(-c4cnn(C5CCNCC5)c4)cc23)nc(N)n1
2% | -3% | -43% | > 10 µM | -2% | 17% | 3% | CCCCc1cc(-c2c[nH]c3ncccc23)nc(N)n1
-89% | -21% | -42% | 4 µM | -79% | -53% | -80% | CCCCc1cc(-c2c[nH]c3ncc(-c4cnn(C5CCNCC5)c4)cc23)nc(N)n1
